Results taken from patent publication US10457707B2, “Substituted urea depsipeptide analogs as activators of the CLPP endopeptidase” (priority 2015, dated 2019).
*1 amine or outer side, *2 acyl side, *3 side chain or, on linkers, in order; H or OH if unused. Where a SMILES comes first, the peptide text is derived from it. Bridges are numbered along the chain shown (N, C = ends). [ ]: non-standard residue; d: D form. The star is where a group is joined. Phe(3,5-F2) = N[C@@H](Cc1cc(F)cc(F)c1)C(=O)O; NMepT = CN[C@H](C(=O)O)[C@@H](C)OP(=O)(O)O; NH(4-OCF3-phenyl) = FC(F)(F)Oc1ccc(N*)cc1; Pro(4S-Me) = C[C@@H]1CN[C@H](C(=O)O)C1; Pro(4R-Me) = C[C@H]1CN[C@H](C(=O)O)C1; NMeT = CN[C@H](C(=O)O)[C@@H](C)O; NH(4-Me-phenyl) = Cc1ccc(N*)cc1; aThr = C[C@H](O)[C@H](N)C(=O)O; CO = O=C([*:1])[*:2]

How the values were obtained:
physchem = conditions: 22 °C, aqueous buffer, kinetic from dmso stock
Sa-ClpP [1] = biological target: T1, Sa-ClpP (Staphylococcus aureus, UniProt Q2G036); experiment: Sa-ClpP casein-BODIPY ClpP activation assay, method variant not marked in Table 5; type: biochemical, S. aureus; conditions: values without ** or † mark; assay variant not stated; read-out: ClpP Activation EC50
T1 construct: made in house; host or cells: E. coli BL21(DE3)
T1 sequence (Q2G036 1-195): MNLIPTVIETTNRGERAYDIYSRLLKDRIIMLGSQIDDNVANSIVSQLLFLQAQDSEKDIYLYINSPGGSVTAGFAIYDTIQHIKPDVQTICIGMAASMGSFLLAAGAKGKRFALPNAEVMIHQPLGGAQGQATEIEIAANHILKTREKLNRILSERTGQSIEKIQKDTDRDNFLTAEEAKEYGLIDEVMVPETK
In short: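 Purified S. aureus ClpP (10 μM) incubated with 25 μg/ml BODIPY FL casein and compound (0-1000 μM) in pH 8 Tris/KCl/TCEP at 37° C. Fluorescence (485/528 nm) read every 5 min over 45 min; reaction velocities fitted to dose-response for EC50 (50% activation), triplicate.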

Sa-ClpP [2] = biological target: T1, Sa-ClpP; experiment: Casein-BODIPY assay, second described ClpP activation method (EnzCheck Protease Assay, 384 well); type: biochemical, S. aureus; conditions: values marked †: second described ClpP activation assay
Protocol: Alternatively, the assay was carried out using EnzCheck Protease Assay (Molecular Probes, Catalog # E6638). The assay was performed in black 384 well, flat bottom, low volume plates (Greiner Bio-One, Monroe, N.C., catalog #784076). 10 μL of Tris*HCl buffer, pH 8.0 with 0.01% Triton X-100 was pipetted into each well using a Well-Mate (Thermo Scientific, Waltham, Mass.). 0.4 μL test compounds or controls (2% DMSO v/v) were added to each well using a Biomek FX liquid handling robot (Beckman Coulter, Indianapolis Ind.). After addition of test compounds and controls, 10 μL of master mix containing 2 μM Sa-ClpP and 2 μM substrate (Bodipy-FL labeled casein) in Tris*HCl buffer, pH 8.0 with 0.01% (v/v) Triton X-100, was pipetted into each well. All assays were performed in triplicate, under linear velocity conditions. Increase in fluorescent signal following activation of Sa-ClpP by test compounds and controls was measured over time period of 30 mins using filters with excitation at 485±15 nm and emission at 520±25 nm on a PHERAstar FS Multilabel reader (BMG, Cary, N.C.). […] Data analysis was done by measuring rate of casein degradation over time (slopes). Computed degradation rates (slopes) were normalized to positive (ADEP4) or negative (DMSO) controls. Using nonlinear regression curve fitting EC50 values and % activation were determined using the equation “log [agonist] vs. Response-variable slope (four parameters)-symmetrical” in the program Prism 6 (GraphPad Software, La Jolla, Calif. USA, www.graphpad.com).

| SMILES | solubility (physchem) | EC50 (Sa-ClpP [1]) | EC50 (Sa-ClpP [2]) |
| --- | --- | --- | --- |
| Cc1ccc(NC(=O)N[C@@H](Cc2cc(F)cc(F)c2)C(=O)N[C@@H]2C(=O)N3CCC[C@H]3C(=O)N(C)[C@@H]([C@@H](C)OP(=O)(O)O)C(=O)N[C@@H](C)C(=O)N3C[C@@H](C)C[C@H]3C(=O)O[C@H]2C)cc1 [Compound 188, (R)-1-((2S,6S,9S,11aS,17S,18S,20aS)-17-((S)-3-(3,5-difluorophenyl)-2-(3-(p-tolyl)ureido)propanamido)-2,6,10,18-tetramethyl-5,8,11,16,20-pentaoxohexadecahydro-1H,5H,16H-dipyrrolo[2,1-c:2′,1′-l][1]oxa[4,7,10,13]tetraazacyclohexadecin-9-yl)ethyl dihydrogen phosphate] ({NH(4-Me-phenyl)-CO}-[Phe(3,5-F2)][aThr]P[NMepT]A[Pro(4S-Me)]; ester 2-C) | 107 ± 2.7 µM | 1800 ± 70 nM |  |
| Cc1ccc(NC(=O)N[C@@H](Cc2cc(F)cc(F)c2)C(=O)N[C@@H]2C(=O)N3CCC[C@H]3C(=O)N(C)[C@@H]([C@@H](C)O)C(=O)N[C@@H](C)C(=O)N3C[C@@H](C)C[C@H]3C(=O)O[C@H]2C)cc1 [Compound 35, (S)-3-(3,5-difluorophenyl)-N-((2S,6S,9S,11aS,17S,18S,20aS)-9-((R)-1-hydroxyethyl)-2,6,10,18-tetramethyl-5,8,11,16,20-pentaoxohexadecahydro-1H,5H,16H-dipyrrolo[2,1-c:2′,1′-l][1]oxa[4,7,10,13]tetraazacyclohexadecin-17-yl)-2-(3-(p-tolyl)ureido)propanamide] ({NH(4-Me-phenyl)-CO}-[Phe(3,5-F2)][aThr]P[NMeT]A[Pro(4S-Me)]; ester 2-C) |  |  | 480 ± 30 nM |
| C[C@@H]1C[C@H]2C(=O)O[C@@H](C)[C@H](NC(=O)[C@H](Cc3cc(F)cc(F)c3)NC(=O)Nc3ccc(OC(F)(F)F)cc3)C(=O)N3CCC[C@H]3C(=O)N(C)[C@@H]([C@@H](C)O)C(=O)N[C@@H](C)C(=O)N2C1 [Compound 41, (S)-3-(3,5-difluorophenyl)-N-((2R,6S,9S,11aS,17S,18S,20aS)-9-((R)-1-hydroxyethyl)-2,6,10,18-tetramethyl-5,8,11,16,20-pentaoxohexadecahydro-1H,5H,16H-dipyrrolo[2,1-c:2′,1′-l][1]oxa[4,7,10,13]tetraazacyclohexadecin-17-yl)-2-(3-(4-(trifluoromethoxy)phenyl)ureido)propanamide] ({NH(4-OCF3-phenyl)-CO}-[Phe(3,5-F2)][aThr]P[NMeT]A[Pro(4R-Me)]; ester 2-C) |  |  | 310 ± 10 nM |
